Laboratory results reported in patent US20030216471A1, “Retinoid formulations for aerosolization and inhalation” (priority 2003, published 2003).
“And” between values parts separate entries of the source, which are not always exact repeats. Equal entries are not always repeated.

What was measured:
RAR α = assay: Western blot of rat lung, inhaled 13-cis RA (experiment A), RAR α; format: in vivo; details: for upregulation of lung tissue RAR (first named, α): daily deposited dose 6.4 mg/kg/day
Experimental: (§1) The experimental groups were as follows (Table 4):1. Vehicle (10/9 mix of PEG 300 and Ethanol with 0.5% of ascorbic acid and 0.5% phosphatidyl choline) control, day 1: rats (19) inhaled vehicle for 2 hr for one day; 2. […] Vehicle control, day 28: rats (16) inhaled vehicle as for group 1 for a period of 28 days; 5.
(§2) Tissues were collected, frozen in dry ice and kept at −70° C. until used. 500 mg aliquots were diced in small pieces and homogenized in 300 μl of cold PBS, using the hand held homogenizer for 2˜3 minutes. Sample and washes were centrifuged at 5000×g for 20 minutes. The pellet was suspended in 400 μl of ice-cold Buffer A [2 μl 0.5M EDTA, 10 μl 100 mM EGTA, 50 μl 100MM PMSF, 10 μl 1M DTT, 10 ml (10 mM HEPES pH 7.9+10 mM KCl)], and left at ice temperature for 15 minutes. 25 μl of 10% solution of NP-40 was added and samples were mixed in a vortex vigorously for 10 seconds. Samples were centrifuged at 14,000×g for 1 minute at 4° C. and the pellet treated once more in this fashion (resuspended etc.). The supernatant was removed and 100 μl of ice-cold Buffer C [4 μl 0.5M EDTA, 20 μl 100 mM EGTA, 20 μl 100 mM PMSF, 2 μl 1M DTT, 2 ml (20 mM HEPES pH 7.9+0.4M NaCl)] was added. Pellets were resuspended by tapping gently on the bottom of the Eppendorf tubes. Samples were rocked vigorously in a bucket of ice on an orbital shaker for 30 minutes. Samples were centrifuged at 14,000×g for 5 minutes at 4° C.
(§3) Samples were prepared by adding one part of the Sample Buffer to one part of the sample and mixing well. Samples were heated at 95° C. for 5 minutes to induce denaturation. 5 μl of Rainbow Standard and 5 μl of Biotinylated Molecular Marker were added to parallel wells. 20 μg protein per sample was loaded in each lane. Electrophoresis was performed with voltage set at 125V for about 1˜1.5 hours. Gel transfer was executed at 25V for 2 hours. The membrane was stained in Ponceau S. for 5 minutes and destained with one wash of 5% acetic acid. The membrane was then washed in TBS solution until the staining disappeared. […]

TGase II = TGase II assay of rat lung tissue after inhaled 13-cis RA (experiment B); format: in vivo
Experimental: Male rats (n=23) (Sprague-Dawley from Charles River) were divided into six experimental groups and were given varying amounts of 13-cis RA through an inhalant apparatus once daily for different times each day for 14 days. The experimental groups were as follows (Table 1): 1. Vehicle control: rats (3) inhaled vehicle for 240 minutes; 2. Low dose 13-cis RA: rats (4) inhaled a solution containing 13-cis RA at a concentration of 62.2 μg/liter (inhaled dose 115.0 μg/kg body weight) in 5 minutes; 3. Low-Middle dose 13-cis RA: rats (4) inhaled a solution containing 13-cis RA at a concentration of 62.2 μg/liter (inhaled dose 334.4 μg/kg body weight) in 15 minutes; 4.Middle dose 13-cis RA: rats (4) inhaled a solution containing 13-cis RA at a concentration of 62.2 μg/liter (inhaled dose 1012.3 μg/kg body weight) in 45 minutes; 5. Middle-High dose 13-cis RA: rats (4) inhaled a solution containing 13-cis RA at a concentration of 62.2 μg/liter (inhaled dose 2843.4 μg/kg body weight) in 120 minutes; 6. High dose 13-cis RA:rats (4) inhaled a solution containing 13-cis RA at a concentration of 62.2 μg/liter (inhaled dose 5935.6 μg/kg body weight) in 240 minutes.
Enzyme assay mixtures were prepared by adding 80 μl of SUBSTRATE mixture (322.8 μl H2O, 120 μl 0.5M NaBorate, 60 μl 0.01M EDTA, 60 μl 0.1M CaCl2, 6 μl 1M DTT, 240 μl dimethyl casein, 30 μl Triton X-100, 1.21 μl [^3H]-Putrescine, 120 μl Putrescine) to 20 μl sample, 20 μl scraping buffer for blank control, 20 μl (18 μl scraping buffer+2 μl TGase II) for positive control. Samples were mixed in 15 ml tubes, the tubes were shaken before putting them into a 28° C. water bath for 30 minutes. Reactions were slowed down in an ice bath. 80 μl of the incubation mixture was adsorbed onto paper disks. These were immediately dropped into cold 10% TCA (0.1% Putrescine) and washed with agitation for 7 minutes, followed by 2 additional washes with 5% TCA (0.05% putrescine) for 5-7 minutes, and once more with cold (−20° C.) 95% ethanol for 5 minutes. Paper disks were dried and placed into 5 ml Aquasol, and counted in a Liquid Scintillation Counter. Protein concentration determination was conducted by the Bradford method.
Cannon (Cannon et al., 1983).

RAR γ = assay: Western blot of rat lung, inhaled 13-cis RA (experiment A), RAR γ; format: in vivo; details: for upregulation of lung tissue RAR (third named, γ): daily deposited dose 6.4 mg/kg/day
Experimental: as §1, §2, §3

[1] = doses used in the MD Anderson study, based on pharmacokinetic data; cited from earlier work
albumin = albumin (Homo sapiens, UniProt P02768); details: systemic administration, reported; cited from earlier work
Sequence of albumin (P02768 25-609, species assumed): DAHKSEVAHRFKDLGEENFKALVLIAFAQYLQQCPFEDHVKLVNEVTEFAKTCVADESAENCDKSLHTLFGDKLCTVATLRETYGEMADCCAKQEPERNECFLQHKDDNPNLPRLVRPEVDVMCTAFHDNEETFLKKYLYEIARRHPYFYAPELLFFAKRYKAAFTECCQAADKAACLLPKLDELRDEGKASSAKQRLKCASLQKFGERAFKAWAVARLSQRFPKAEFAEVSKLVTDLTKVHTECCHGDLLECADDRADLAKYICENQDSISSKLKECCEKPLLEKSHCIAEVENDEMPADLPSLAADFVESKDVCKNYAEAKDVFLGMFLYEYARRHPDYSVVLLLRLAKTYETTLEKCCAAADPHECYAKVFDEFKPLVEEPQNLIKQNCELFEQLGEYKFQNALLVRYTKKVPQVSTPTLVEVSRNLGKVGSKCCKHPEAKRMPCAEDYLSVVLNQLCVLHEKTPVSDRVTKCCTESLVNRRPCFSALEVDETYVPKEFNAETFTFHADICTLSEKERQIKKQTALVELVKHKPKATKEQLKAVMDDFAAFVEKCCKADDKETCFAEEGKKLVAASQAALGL

liver RARs = assay: Western blot of rat liver RARs after inhaled 13-cis RA; format: in vivo; details: not shown
Experimental: as §1
The experimental groups were as follows (Table 1): 1. Vehicle control: rats (3) inhaled vehicle for 240 minutes; 2.
as §2, with “Samples were rocked vigorously in a bucket of ice on an orbital shaker for 30 minutes. Samples were centrifuged at 14,000×g for 5 minutes at 4° C.” left out

[2] = daily deposited dose 1.9 mg/kg/day, day 28

CC1=C(/C=C/C(C)=C/C=C/C(C)=C\C(=O)O)C(C)(C)CCC1 [13-cis RA, 13-cis-Retinoic Acid]
induction of lung RAR (first named, α) (RAR α; [2]): 4.7 fold
upregulation of lung tissue RAR (first named, α) (RAR α; day 1): 3.4 fold
upregulation of lung tissue RAR (first named, α) (RAR α; day 17): 4.2 fold
TGase II assay, rat lung (TGase II; High dose, 240 min daily, 14 days): 8053 DPM/μg protein
TGase II assay, rat lung (TGase II; High dose: 1872 μg/kg total deposited, 240 min daily, 14 days): 0.1025+/−0.004 picomoles/μg protein/30 min and 0.1025 ± 0.004 picomoles/μg protein/30 min
TGase II assay, rat lung (TGase II; Low dose, 5 min daily, 14 days, vehicle 3535): 7503 DPM/μg protein
TGase II assay, rat lung (TGase II; Low dose: 39 μg/kg total deposited, 5 min daily, 14 days, vehicle 0.0450): 0.0955+/−0.004 picomoles/μg protein/30 min and 0.0955 ± 0.004 picomoles/μg protein/30 min
TGase II assay, rat lung (TGase II; Low-Middle dose, 15 min daily, 14 days): 9035 DPM/μg protein
TGase II assay, rat lung (TGase II; Low-Middle dose: 117 μg/kg total deposited, 15 min daily, 14 days): 0.1150+/−0.006 picomoles/μg protein/30 min and 0.1150 ± 0.006 picomoles/μg protein/30 min
TGase II assay, rat lung (TGase II; Middle dose, 45 min daily, 14 days): 10449 DPM/μg protein
TGase II assay, rat lung (TGase II; Middle dose: 351 μg/kg total deposited, 45 min daily, 14 days): 0.1330+/−0.009 picomoles/μg protein/30 min and 0.1330 ± 0.009 picomoles/μg protein/30 min
TGase II assay, rat lung (TGase II; Middle-High dose, 120 min daily, 14 days): 8014 DPM/μg protein
TGase II assay, rat lung (TGase II; Middle-High dose: 936 μg/kg total deposited, 120 min daily, 14 days): 0.1020+/−0.005 picomoles/μg protein/30 min and 0.1020 ± 0.005 picomoles/μg protein/30 min
stimulation of lung TGase activity (TGase II; maximum, inhaled dose 1012.3 μg/kg (45 minutes of inhalation), 14 days): 2.9 Fold
stimulation of lung TGase activity (TGase II; with larger amounts of inhaled retinoid): 1.2 fold
induction of lung RAR (third named, γ) (RAR γ; [2]): 8.1 fold
upregulation of lung tissue RAR (third named, γ) (RAR γ; day 1): 9.7 fold
upregulation of lung tissue RAR (third named, γ) (RAR γ; day 17): 12.9 fold
steady-state blood levels [1]: 100 to 200 ng/mL
present as albumin bound (albumin): 99%
effect of inhaled 13-cis RA on liver RARs (liver RARs; 5 to 240 minutes daily for 14 days): not responsive
effect of inhaled 13-cis RA on liver RARs (liver RARs; same rats as FIG. 2A (experiment A)): failed to show any increase
